Like-named read-outs stand apart in the source and are kept apart here.
What was measured:
Format in all cases: in vivo
Setaria viridis (SETVI) [1] = assay: Post-emergence herbicidal action against SETVI
Summary of the method: (§1)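 Rates were 320 g/ha or below, applied as aqueous WP/EC spray with 0.5% additive (600 l/ha) onto one-leaf-stage plants. About 3 weeks later in the greenhouse, damage was scored visually against untreated plants on a 0–100% scale, where 100% means plants died.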

Viola tricolor (VIOTR) [2] = assay: Post-emergence herbicidal action against VIOTR
Summary of the method: as §1

[3] = system: Digitaria sanguinalis (DIGSA); assay: Post-emergence herbicidal action against DIGSA; conditions: 320 g/ha, visual rating about 3 weeks after treatment
Summary of the method: as §1

[4] = system: Echinochloa crus-galli (ECHCG); assay: Post-emergence herbicidal action against ECHCG
Summary of the method: as §1

Oryza sativa (ORYSA) = conditions: crop plant compatibility
Summary of the method: (§2)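 One-leaf-stage crops (2–3 wk post-sowing, sandy loam, greenhouse) sprayed on green parts; 0.5% additive, 600 l/ha water. Rated by eye ~3 wk later, % vs untreated; suffixes a/b/c mark different dosages.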

[5] = system: Triticum aestivum (TRZAS); conditions: crop plant compatibility, effect vs untreated controls
Summary of the method: as §2

Zea mays (ZEAMX) = conditions: for Post-emergence action against ZEAMX in % (crop plant compatibility): 20 g/ha, effect in comparison to untreated controls; for Post-emergence action against ZEAMX in %: crop plant compatibility, 80 g/ha, effect vs untreated controls
Summary of the method: as §2

[6] = system: Verconica persica (VERPE); assay: Post-emergence herbicidal action against VERPE
Summary of the method: as §1

Lolium rigidum (LOLRI) [7] = assay: Post-emergence herbicidal action against LOLRI
Summary of the method: as §1

[8] = system: Alopecurus myosuroides (ALOMY); assay: Post-emergence herbicidal action against ALOMY; conditions: visual rating about 3 weeks after treatment vs untreated controls (100% = plants have died, 0% = like control plants)
Summary of the method: as §1

[9] = system: Echinochloa crus-galli (ECHCG); assay: Pre-emergence herbicidal action against ECHCG
Summary of the method: (§3)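 Dosages of 320 g/ha or less; pre-emergence; WP or EC in aqueous spray, 0.5% additive, 600 l/ha; greenhouse; visual % effect after ~3 wk relative to control pots.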

[10] = system: Abutilon theophrasti (ABUTH); assay: Post-emergence herbicidal action against ABUTH; conditions: visual rating about 3 weeks after treatment vs untreated controls (100% = plants have died, 0% = like control plants)
Summary of the method: as §1

Avena fatua (AVEFA) [11] = assay: Pre-emergence herbicidal action against AVEFA; conditions: 320 g/ha, visual scoring after about 3 weeks vs untreated controls
Summary of the method: as §3

[12] = system: Pharbitis purpurea (PHBPU); assay: Post-emergence herbicidal action against PHBPU; conditions: dosage 80 g/ha
Summary of the method: as §1

Setaria viridis (SETVI) [13] = assay: Pre-emergence herbicidal action against SETVI
Summary of the method: as §3

[14] = system: Alopecurus myosuroides (ALOMY); assay: Pre-emergence herbicidal action against ALOMY; conditions: scored visually after about 3 weeks, 100% = plants have died
Summary of the method: as §3

[15] = system: Polygonum convolvulus (POLCO); assay: Post-emergence herbicidal action against POLCO
Summary of the method: as §1

[16] = system: Matricaria inodora (MATIN); assay: Pre-emergence herbicidal action against MATIN
Summary of the method: as §3

[17] = system: Verconica persica (VERPE); assay: Pre-emergence herbicidal action against VERPE
Summary of the method: as §3

[18] = system: Amaranthus retroflexus (AMARE); assay: Pre-emergence herbicidal action against AMARE; conditions: visual scoring after about 3 weeks vs untreated controls
Summary of the method: as §3

Lolium rigidum (LOLRI) [19] = assay: Pre-emergence herbicidal action against LOLRI
Summary of the method: as §3

[20] = system: Pharbitis purpurea (PHBPU); assay: Pre-emergence herbicidal action against PHBPU
Summary of the method: as §3

[21] = system: Polygonum convolvulus (POLCO); assay: Pre-emergence herbicidal action against POLCO
Summary of the method: as §3

[22] = system: Matricaria inodora (MATIN); assay: Post-emergence herbicidal action against MATIN; conditions: dosage 80 g/ha
Summary of the method: as §1

Avena fatua (AVEFA) [23] = assay: Post-emergence herbicidal action against AVEFA; conditions: 80 g/ha, visual rating about 3 weeks after treatment
Summary of the method: as §1

[24] = system: Amaranthus retroflexus (AMARE); assay: Post-emergence herbicidal action against AMARE
Summary of the method: as §1

Viola tricolor (VIOTR) [25] = assay: Pre-emergence herbicidal action against VIOTR
Summary of the method: as §3

[26] = 20 g/ha, effect vs untreated controls
[27] = 80 g/ha, effect in comparison to untreated controls
[28] = 80 g/ha, visual rating about 3 weeks after treatment vs untreated controls (100% = plants have died, 0% = like control plants)

Row | Post-emergence action against ORYSA in % (Oryza sativa (ORYSA); [26]) | Post-emergence action against ORYSA in % (Oryza sativa (ORYSA); [27]) | Post-emergence action against TRZAS in % ([5]; 20 g/ha) | Post-emergence action against ZEAMX in % (crop plant compatibility) (Zea mays (ZEAMX)) | Post-emergence action against ZEAMX in % (Zea mays (ZEAMX)) | SMILES | Post-emergence action against SETVI in % (Setaria viridis (SETVI) [1]; dosage 320 g/ha) | Post-emergence action against VIOTR in % (Viola tricolor (VIOTR) [2]; 320 g/ha) | Post-emergence action against DIGSA in % [3] | Post-emergence action against ECHCG in % ([4]; dosage 320 g/ha) | Post-emergence action against VERPE in % ([6]; 320 g/ha, VERPE) | Post-emergence action against VERPE in % ([6]; dosage 80 g/ha) | Post-emergence action against LOLRI in % (Lolium rigidum (LOLRI) [7]; dosage 80 g/ha) | Post-emergence action against ALOMY in % ([8]; 320 g/ha) | Pre-emergence action against ECHCG in % ([9]; dosage 80 g/ha) | Pre-emergence action against ECHCG in % ([9]; dosage 320 g/ha) | Pre-emergence action against AVEFA in % (Avena fatua (AVEFA) [11]) | Post-emergence action against PHBPU in % [12] | Post-emergence action against SETVI in % (Setaria viridis (SETVI) [1]; dosage 80 g/ha) | Pre-emergence action against SETVI in % (Setaria viridis (SETVI) [13]; dosage 320 g/ha) | Pre-emergence action against ALOMY ([14]; 80 g/ha) | further results
1 | 10% | 20% | 20% | 10% | 20% | COC(=O)C(C)NC(=O)C(C)Oc1nn(-c2ccccn2)c(-c2ccc(F)nc2)c1Br (stereo not shown) [Example I-286] | 80% | 80% | 90% | 80% | – | – | – | – | – | – | – | – | – | – | – | Post-emergence action against ORYSA in % (Oryza sativa (ORYSA); 320 g/ha, effect in comparison to untreated controls): 20%
2 | 0% | 10% | 20% | 10% | – | COC(=O)[C@@H](C)Oc1nn(-c2ncccc2F)c(-c2ccnc(F)c2)c1Br [Example I-134] | 80% | – | 80% | 80% | 80% | 80% | 80% | 90% | – | – | – | – | – | – | – | Post-emergence action against LOLRI in % (Lolium rigidum (LOLRI) [7]; dosage 320 g/ha): 90%
3 | 0% | 0% | 20% | 10% | 20% | COC(=O)CCOC(=O)COc1nn(-c2ccccn2)c(-c2cncc(F)c2)c1Cl [Example I-75] | – | – | – | – | – | 80% | 90% | – | 80% | 100% | 80% | 90% | 80% | 100% | 80% | Post-emergence action against ABUTH in % ([10]; 80 g/ha): 80%; Pre-emergence action against ALOMY ([14]; 320 g/ha): 90%; Post-emergence action against POLCO in % ([15]; dosage 80 g/ha): 90%; Post-emergence action against ALOMY in % ([8]; 80 g/ha): 90%; Pre-emergence action against MATIN in % ([16]; dosage 80 g/ha): 90%; Pre-emergence action against MATIN in % ([16]; dosage 320 g/ha): 90%; Pre-emergence action against VERPE in % ([17]; dosage 320 g/ha): 90%; Pre-emergence action against AMARE in % ([18]; 80 g/ha): 80%; Pre-emergence action against AMARE in % ([18]; 320 g/ha): 90%; Pre-emergence action against LOLRI in % (Lolium rigidum (LOLRI) [19]; dosage 80 g/ha): 80%; Pre-emergence action against LOLRI in % (Lolium rigidum (LOLRI) [19]; dosage 320 g/ha): 100%; Pre-emergence action against PHBPU in % ([20]; dosage 80 g/ha): 90%; Pre-emergence action against PHBPU in % ([20]; dosage 320 g/ha): 90%; Pre-emergence action against POLCO in % ([21]; dosage 320 g/ha): 90%; Post-emergence action against MATIN in % [22]: 90%; Post-emergence action against AVEFA in % (Avena fatua (AVEFA) [23]): 80%; Post-emergence action against AMARE in % [24, 28]: 80%; Post-emergence action against ECHCG in % ([4]; dosage 80 g/ha): 90%; Pre-emergence action against VIOTR in % (Viola tricolor (VIOTR) [25]; 320 g/ha, Viola tricolor): 100%
4 | 0% | 0% | 20% | 0% | 0% | COC(=O)COc1nn(-c2cccnc2C)c(-c2cncc(F)c2)c1Cl [II-44] | 90% | 90% | 80% | 90% | 90% | 80% | – | 100% | – | – | – | – | – | – | – | Post-emergence action against ABUTH in % ([10]; 320 g/ha): 80%; Post-emergence action against VIOTR in % (Viola tricolor (VIOTR) [2]; 80 g/ha): 80%; Post-emergence action against POLCO in % ([15]; dosage 320 g/ha): 90%; Post-emergence action against AMARE in % ([24]; 320 g/ha, visual rating about 3 weeks after treatment): 90%; Post-emergence action against TRZAS in % ([5]; 80 g/ha): 20%
5 | 20% | – | 20% | 20% | – | CCOC(=O)COc1nn(-c2ncccc2F)c(-c2ccc(F)nc2)c1Br [Example I-51] | – | – | – | – | – | 80% | – | – | 80% | 90% | 90% | 90% | 90% | 100% | 90% | Pre-emergence action against SETVI in % (Setaria viridis (SETVI) [13]; dosage 80 g/ha): 90%; Post-emergence action against VIOTR in % (Viola tricolor (VIOTR) [2]; 80 g/ha): 80%; Pre-emergence action against ALOMY ([14]; 320 g/ha): 100%; Post-emergence action against ALOMY in % ([8]; 80 g/ha): 90%; Pre-emergence action against MATIN in % ([16]; dosage 80 g/ha): 90%; Pre-emergence action against MATIN in % ([16]; dosage 320 g/ha): 90%; Pre-emergence action against VERPE in % ([17]; dosage 80 g/ha): 100%; Pre-emergence action against VERPE in % ([17]; dosage 320 g/ha): 100%; Pre-emergence action against AMARE in % ([18]; 80 g/ha): 100%; Pre-emergence action against AMARE in % ([18]; 320 g/ha): 100%; Pre-emergence action against LOLRI in % (Lolium rigidum (LOLRI) [19]; dosage 320 g/ha): 90%; Pre-emergence action against PHBPU in % ([20]; dosage 320 g/ha): 90%; Pre-emergence action against POLCO in % ([21]; dosage 80 g/ha): 80%; Pre-emergence action against POLCO in % ([21]; dosage 320 g/ha): 90%; Post-emergence action against MATIN in % [22]: 80%; Post-emergence action against AVEFA in % (Avena fatua (AVEFA) [23]): 90%; Post-emergence action against AMARE in % [24, 28]: 90%; Post-emergence action against ECHCG in % ([4]; dosage 80 g/ha): 90%; Pre-emergence action against VIOTR in % (Viola tricolor (VIOTR) [25]; 320 g/ha, Viola tricolor): 100%; Pre-emergence action against VIOTR in % (Viola tricolor (VIOTR) [25]; dosage 80 g/ha): 100%
